In patent publication US20240246979A1, “cGAS INHIBITORS” (Eli Lilly and Company, priority 2022, published 2024):
pIC50: −log10 of the molar value.

Tests used:
[1] = target: T1, cGAS (Homo sapiens, UniProt Q8N884); test: Cellular assay to measure cGAS activity (IFNb AlphaLISA in THP1 cells stimulated by RDG-Adenovirus-GFP); assay type: cell-based; design: host or cells: THP1 cells differentiated with PMA and stimulated with RDG-Adenovirus-GFP; conditions: PMA-differentiated THP1 cells, RDG-Adenovirus-GFP at 1000 MOI; inhibition of IFNb production as marker for cGAS activity
Outline: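 PMA-differentiated THP1 cells were infected with RDG-Adenovirus-GFP at 1000 MOI for 4 h, then exposed overnight to test compounds. IFNb in the supernatant was quantified by AlphaLISA as a cGAS activity marker, and IC50 was fitted with a 4-parameter logistic equation.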

[2] = target: T1, cGAS; test: In vitro inhibition assay of cGAS activity (cGAMP production, RapidFire mass spectrometry); assay type: biochemical; design: Insert cDNA encoding full-length of human cGAS; His6; made in house; host or cells: E. coli BL21(DE3); conditions: 10 nM recombinant human cGAS, 60 nM 75-bp dsDNA, 50 μM ATP, 50 μM GTP, 3 hrs
Outline: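 His6-tagged full-length human cGAS (10 nM, E. coli-expressed) was incubated for 3 hrs at ambient temperature with 60 nM 75-bp dsDNA, 50 μM ATP and 50 μM GTP in Tris pH 7.5/MgCl2 buffer with compound dilutions. cGAMP was quantified by RapidFire mass spectrometry against an internal standard, and IC50 was obtained by 4-parameter logistic fit.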

T1 sequence (Q8N884 whole entry): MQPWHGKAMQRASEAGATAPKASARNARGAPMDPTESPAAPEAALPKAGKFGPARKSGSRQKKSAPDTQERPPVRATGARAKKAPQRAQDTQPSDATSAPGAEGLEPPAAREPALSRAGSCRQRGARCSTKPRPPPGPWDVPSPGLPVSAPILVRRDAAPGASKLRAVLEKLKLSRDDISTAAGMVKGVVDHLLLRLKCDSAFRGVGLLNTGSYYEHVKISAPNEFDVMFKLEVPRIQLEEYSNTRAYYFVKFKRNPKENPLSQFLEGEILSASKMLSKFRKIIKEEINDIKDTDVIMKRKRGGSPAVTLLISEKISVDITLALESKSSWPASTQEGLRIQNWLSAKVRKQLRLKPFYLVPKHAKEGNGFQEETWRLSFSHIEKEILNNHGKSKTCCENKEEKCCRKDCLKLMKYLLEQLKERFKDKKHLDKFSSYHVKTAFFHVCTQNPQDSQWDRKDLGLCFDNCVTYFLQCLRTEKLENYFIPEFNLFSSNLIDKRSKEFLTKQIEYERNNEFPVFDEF

| Compound | pIC50 [1] | pIC50 [2] |
| --- | --- | --- |
| Cc1noc(-c2cc(Cl)c(Cl)c3[nH]c4c(c23)CC(=O)NCC4)n1 [Example 25, 7,8-Dichloro-10-(3-methyl-1,2,4-oxadiazol-5-yl)-3,4,5,6-tetrahydroazepino[4,5-b]indol-2(1H)-one] | < 5.00 | 7.57 |
| O=C1Cc2c([nH]c3c(Cl)c(Cl)cc(-c4cnco4)c23)CCN1 [Example 27, 7,8-Dichloro-10-(oxazol-5-yl)-3,4,5,6-tetrahydroazepino[4,5-b]indol-2(1H)-one] | < 5.00 | 6.96 |
| CCNc1cc(Cl)c(Cl)c2[nH]c3c(c12)CC(=O)NCC3 [Example 30, 7,8-Dichloro-10-(ethylamino)-3,4,5,6-tetrahydroazepino[4,5-b]indol-2(1H)-one] | 5.43 | 6.92 |
| CC1C(=O)NCCc2[nH]c3c(Cl)c(Cl)cc(CC#N)c3c21 (centres unmarked) [Example 31, 2-(7,8-Dichloro-1-methyl-2-oxo-1,2,3,4,5,6-hexahydroazepino[4,5-b]indol-10-yl)acetonitrile] | 5.95 | 7.40 |
| NC(=O)C(=O)Nc1cc(Cl)c(Cl)c2[nH]c3c(c12)CC(=O)NCC3 [Example 32, N^1-(7,8-Dichloro-2-oxo-1,2,3,4,5,6-hexahydroazepino[4,5-b]indol-10-yl)oxalamide] | 5.85 | 7.48 |
| C[C@H]1C(=O)NCCc2[nH]c3c(Cl)c(Cl)cc(-c4cnn(C)n4)c3c21 [Example 38, (R)-7,8-Dichloro-1-methyl-10-(2-methyl-2H-1,2,3-triazol-4-yl)-3,4,5,6-tetrahydroazepino[4,5-b]indol-2(1H)-one Or (S′)-7,8-Dichloro-1-methyl-10-(2-methyl-2H-1,2,3-triazol-4-yl)-3,4,5,6-tetrahydroazepino[4,5-b]indol-2(1H)-one] | 5.01 | 5.78 |
| COCC(=O)Nc1cc(Cl)c(Cl)c2[nH]c3c(c12)C(C)C(=O)NCC3 (centres unmarked) [Example 39, N-(7,8-Dichloro-1-methyl-2-oxo-1,2,3,4,5,6-hexahydroazepino[4,5-b]indol-10-yl)-2-methoxyacetamide] | 6.05 | 7.26 |
| CC1C(=O)NCCc2[nH]c3c(Cl)c(Cl)cc(NCc4cocn4)c3c21 (centres unmarked) [Example 57, 7,8-Dichloro-1-methyl-10-((oxazol-4-ylmethyl)amino)-3,4,5,6-tetrahydroazepino[4,5-b]indol-2(1H)-one] | 6.25 | 7.38 |
| CC1C(=O)NCCc2[nH]c3c(Cl)c(Cl)cc(NCCC(F)F)c3c21 (centres unmarked) [Example 71, 7,8-Dichloro-10-((3,3-difluoropropyl)amino)-1-methyl-3,4,5,6-tetrahydroazepino[4,5-b]indol-2(1H)-one] | 5.63 | 7.37 |
| CC1C(=O)NCCc2c1c1c(OCCCO)cc(Cl)c(Cl)c1n2C (centres unmarked) [Example 77, 7,8-Dichloro-10-(3-hydroxypropoxy)-1,6-dimethyl-3,4,5,6-tetrahydroazepino[4,5-b]indol-2(1H)-one] | 6.07 | 7.85 |
| CC1C(=O)NCCc2c1c1c(OCC#N)cc(Cl)c(Cl)c1n2C (centres unmarked) [Example 78, 2-((7,8-Dichloro-1,6-dimethyl-2-oxo-1,2,3,4,5,6-hexahydroazepino[4,5-b]indol-10-yl)oxy)acetonitrile] | 6.09 | 7.33 |
| COCCOc1cc(Cl)c(Cl)c2[nH]c3c(c12)C(C)C(=O)NCC3 (centres unmarked) [Example 79, 7,8-Dichloro-10-(2-methoxyethoxy)-1-methyl-3,4,5,6-tetrahydroazepino[4,5-b]indol-2(1H)-one] | 6.23 | 7.85 |
| CC(O)COc1cc(Cl)c(Cl)c2[nH]c3c(c12)CC(=O)NCC3 (centres unmarked) [Example 87, 7,8-Dichloro-10-(2-hydroxypropoxy)-3,4,5,6-tetrahydroazepino[4,5-b]indol-2(1H)-one] | 5.22 | 7.44 |
| CC1C(=O)NCCc2[nH]c3c(Cl)c(Cl)cc(CCCO)c3c21 (centres unmarked) [Example 88, 7,8-Dichloro-10-(3-hydroxypropyl)-1-methyl-3,4,5,6-tetrahydroazepino[4,5-b]indol-2(1H)-one] | 5.49 | 7.44 |
| CC1C(=O)NCCc2c1c1c(NCc3cnc[nH]3)cc(Cl)c(Cl)c1n2C (centres unmarked) [Example 91, 10-(((1H-Imidazol-5-yl)methyl)amino)-7,8-dichloro-1,6-dimethyl-3,4,5,6-tetrahydroazepino[4,5-b]indol-2(1H)-one] | 5.92 | 7.68 |
| COCCNc1cc(Cl)c(Cl)c2c1c1c(n2C)CCNC(=O)C1C (centres unmarked) [Example 96, 7,8-Dichloro-10-((2-methoxyethyl)amino)-1,6-dimethyl-3,4,5,6-tetrahydroazepino[4,5-b]indol-2(1H)-one] | < 5.00 | 7.73 |
| COCCOc1cc(Cl)c(Cl)c2c1c1c(n2C)CCNC(=O)C1C (centres unmarked) [Example 97, 7,8-Dichloro-10-(2-methoxyethoxy)-1,6-dimethyl-3,4,5,6-tetrahydroazepino[4,5-b]indol-2(1H)-one] | 5.94 | 7.74 |
| Cn1ncc(-c2cc(Cl)c(Cl)c3[nH]c4c(c23)CC(=O)NCC4CCNCC(F)(F)F)n1 (centres unmarked) [Example 112, 7,8-Dichloro-10-(2-methyl-2H-1,2,3-triazol-4-yl)-5-(2-((2,2,2-trifluoroethyl)amino)ethyl)-3,4,5,6-tetrahydroazepino[4,5-b]indol-2(1H)-one] | 5.59 | 7.29 |

The next lines start with the values.

| pIC50 [1] | pIC50 [2] | Compound |
| --- | --- | --- |
| < 5.00 | 6.88 | O=C1Cc2c([nH]c3c(Cl)c(Cl)cc(-c4nc(CO)no4)c23)CCN1 [Example 26, 7,8-Dichloro-10-(3-(hydroxymethyl)-1,2,4-oxadiazol-5-yl)-3,4,5,6-tetrahydroazepino[4,5-b]indol-2(1H)-one] |
| 6.04 | 7.24 | N#CCc1cc(Cl)c(Cl)c2[nH]c3c(c12)CC(=O)NCC3 [Example 28, 2-(7,8-Dichloro-2-oxo-1,2,3,4,5,6-hexahydroazepino[4,5-b]indol-10-yl)acetonitrile] |
| < 5.00 | 6.91 | O=C1Cc2c([nH]c3c(Cl)c(Cl)cc(-c4nnc[nH]4)c23)CCN1 [Example 29, 7,8-Dichloro-10-(4H-1,2,4-triazol-3-yl)-3,4,5,6-tetrahydroazepino[4,5-b]indol-2(1H)-one] |
| 5.92 | 7.69 | Nc1noc(-c2cc(Cl)c(Cl)c3[nH]c4c(c23)CC(=O)NCC4)n1 [Example 33, 10-(3-Amino-1,2,4-oxadiazol-5-yl)-7,8-dichloro-3,4,5,6-tetrahydroazepino[4,5-b]indol-2(1H)-one] |
| 5.76 | 7.40 | Nc1cncc(-c2cc(Cl)c(Cl)c3[nH]c4c(c23)CC(=O)NCC4)n1 [Example 34, 10-(6-Aminopyrazin-2-yl)-7,8-dichloro-3,4,5,6-tetrahydroazepino[4,5-b]indol-2(1H)-one] |
| 5.55 | 7.41 | CC1C(=O)NCCc2[nH]c3c(Cl)c(Cl)cc(NC(=O)C4CCO4)c3c21 (centres unmarked) [Example 44, N-(7,8-Dichloro-1-methyl-2-oxo-1,2,3,4,5,6-hexahydroazepino[4,5-b]indol-10-yl)oxetane-2-carboxamide] |
| 5.65 | 7.33 | CCCNc1cc(Cl)c(Cl)c2[nH]c3c(c12)C(C)C(=O)NCC3 (centres unmarked) [Example 45, 7,8-Dichloro-1-methyl-10-(propylamino)-3,4,5,6-tetrahydroazepino[4,5-b]indol-2(1H)-one] |
| 5.99 | 7.51 | Cc1conc1Nc1cc(Cl)c(Cl)c2[nH]c3c(c12)C(C)C(=O)NCC3 (centres unmarked) [Example 67, 7,8-Dichloro-1-methyl-10-((4-methylisoxazol-3-yl)amino)-3,4,5,6-tetrahydroazepino[4,5-b]indol-2(1H)-one] |
| 5.89 | 7.52 | CC1C(=O)NCCc2[nH]c3c(Cl)c(Cl)cc(NCC(F)F)c3c21 (centres unmarked) [Example 70, 7,8-Dichloro-10-((2,2-difluoroethyl)amino)-1-methyl-3,4,5,6-tetrahydroazepino[4,5-b]indol-2(1H)-one] |
| 6.18 | 7.63 | CC1C(=O)NCCc2[nH]c3c(Cl)c(Cl)cc(OCC(F)(F)CO)c3c21 (centres unmarked) [Example 72, 7,8-Dichloro-10-(2,2-difluoro-3-hydroxypropoxy)-1-methyl-3,4,5,6-tetrahydroazepino[4,5-b]indol-2(1H)-one] |
| 5.94 | 7.72 | CC1C(=O)NCCc2[nH]c3c(Cl)c(Cl)cc(OCCF)c3c21 (centres unmarked) [Example 75, 7,8-Dichloro-10-(2-fluoroethoxy)-1-methyl-3,4,5,6-tetrahydroazepino[4,5-b]indol-2(1H)-one] |
| 6.14 | 7.63 | Cn1ncc(-c2cc(Cl)c(Cl)c3[nH]c4c(c23)CC(=O)NCC4CC(C)(C)O)n1 (centres unmarked) [Example 102, 7,8-Dichloro-5-(2-hydroxy-2-methylpropyl)-10-(2-methyl-2H-1,2,3-triazol-4-yl)-3,4,5,6-tetrahydroazepino[4,5-b]indol-2(1H)-one] |
| 5.49 | 7.41 | Cn1ncc(-c2cc(Cl)c(Cl)c3c2c2c(n3C)C(CC(C)(C)O)CNC(=O)C2)n1 (centres unmarked) [Example 105, 7,8-Dichloro-5-(2-hydroxy-2-methylpropyl)-6-methyl-10-(2-methyl-2H-1,2,3-triazol-4-yl)-3,4,5,6-tetrahydroazepino[4,5-b]indol-2(1H)-one] |
